Measured values as given in PMC11022737, “Targeting GRP75 with a Chlorpromazine Derivative Inhibits Endometrial Cancer Progression Through GRP75–IP3R‐Ca^2+‐AMPK Axis” (Advanced Science, 2024).
Like-named read-outs stand apart in the source and are kept apart here.

Key:
[1] = test system: endometrial cancer organoid (ECO); assay: anti-proliferation in endometrial cancer organoid (ECO) model; type: cell-based; settings: Homo sapiens, n = 3, mean ± SD
Procedure: ECO cultures were established as described previously.^[ [50] ^] Biopsies were cut into small pieces and extensively rinsed in phosphate‐buffered saline (PBS; HyClone, SH30256.01) containing 2% penicillin–streptomycin solution (Thermo Fisher Scientific, 10 010 023). Tissues were incubated in TrypLE (1x; Thermo Fisher Scientific, 12 604 013) supplemented with rock inhibitor for 20 min and then mechanically sheared to obtain a cell suspension. Digestion was stopped by dilution with equal amounts of DMEM/F12 and centrifuged at 1300 rpm for 5 min at 4 °C. The pellet was resuspended in Matrigel (Corning, 356 231, Corning, NY, USA), and 30 µL droplets were deposited in pre‐warmed 24‐well plates. ECOs were cultured as described previously.^[ [51] ^] For passages (performed every 10–20 d), organoids were recovered via liquefaction of the Matrigel drops with ice‐cold DMEM/F12 to ensure maximum organoid collection. Subsequently, ECOs were dissociated by repeated pipetting using TrypLE (in DMEM/F12 containing rock inhibitor), and the mixture was centrifuged at 1300 rpm. […]
EC cells were seeded into 96‐well plates at a concentration of 8 × 10^3 cells well^−1 in a 100 µL volume and cultured overnight. […] Absorbance at 450 nm was measured using a microplate reader (BioTek Synergy H1, Agilent Technologies, Santa Clara, CA, USA).

[2] = plasma protein binding using equilibrium dialysis; type: in vitro ADME
Description: Plasma protein binding using equilibrium dialysis: A 96-well equilibrium dialysis device and HTD 96 a/b regenerated cellulose membrane strips with a molecular mass cutoff of 12–14 kDa were obtained from HTDialysis LLC (Gales Ferry, CT). The dialysis device was assembled following the manufacturer's instructions.

ISK and KLE cells [3] = assay: Seahorse glycolytic rate assay (ECAR); type: cell-based, human; settings: 10 µM
Procedure: The ECAR and OCR were measured using the Seahorse XF Glycolysis Stress Test Kit or Seahorse XF Cell Mito Stress Test Kit on the Seahorse XF 96 Extracellular Flux Analyzer (Seahorse Bioscience, North Billerica, MA, USA), according to the manufacturer's introductions. […] Glucose, oligomycin, and 2‐deoxy‐glucose were used to determine the ECAR values, whereas oligomycin, carbonyl cyanide‐p‐trifluoromethoxyphenylhydrazone, and rotenone were used to measure the OCR.

[4] = parameters: method as in PMID 35868106; settings: cited from earlier work
[5] = pharmacokinetic assay in SD rats (PO, IP, IV); type: in vivo; settings: male, rat, plasma
Procedure: Three male SD rats (208–259 g, 6–8 weeks) per group were purchased from JH Laboratory Animal Co. LTD. All rats were raised under controlled temperature and humidity conditions and had free access to food and water. […] Each rat was injected with a combination solution at doses of 2, 10, and 5 mg kg^−1 for IV, PO, and IP, respectively. Blood samples collected in anticoagulant (K2EDTA)‐containing tubes at 0.25, 0.5, 1, 2, 4, 8, and 24 h after injection were centrifuged at 2000 × g at 4 °C for 5 min to obtain plasma. LC‐MS/MS analysis of samples was carried out using an ACQUITY UPLC HSS T3 1.8 µm column. The mobile phase was a mixture of phase A (0.1% formic acid in water) and phase B (0.1% formic acid in acetonitrile), which ran in gradient mode at a flow rate of 0.6 mL min^−1 at 60 °C. Mass spectra were obtained on an API6500 triple quadrupole equipped with an ESI source. Glipizide was used as an internal standard. The plasma concentrations of the compounds were analyzed, and the pharmacokinetic parameters were calculated via WinNonlin.

EC cells (ISK) = assay: MAM integrity and mitochondrial Ca2+ (TEM, confocal imaging) in EC cells; type: cell-based, human
Procedure: EC cells were fixed with 2.5% glutaraldehyde in sodium cacodylate buffer (0.1 mol L^−1, pH 7.2) at 4 °C overnight and post‐fixed for 1 h in 1% osmium tetroxide. Samples were stained for 1 h with 1% uranyl acetate in water before dehydration and embedding in the TAAB resin. Images were obtained using a transmission electron microscope.
Co‐localization analysis of the ER and mitochondria was conducted as previously described.^[ [64], [65] ^] EC cells grown on glass slides were loaded with Mito‐Tracker Red (0.3 µmol L^−1) and ER‐Tracker Green (1 µmol L^−1) at 37 °C for 30 min. Images were captured using a confocal microscope equipped with a 100× oil immersion objective (excitation at 488 and 594 nm, emission at 505–530 and >560 nm, respectively). Co‐localization of the ER and mitochondria was quantified as Manders’ co‐localization coefficient (MCC) using ImageJ software with a JACoP plugin. MCCs were calculated according to the fraction of mitochondrial pixels in contact with the ER (with a higher value representing more co‐localization). The co‐localization of Rhod‐2 (red fluorescent signal, 4 µmol L^−1) with Mito‐Tracker Green (0.3 µmol L^−1) in the live cells was performed as described above.

[6] = test system: AMPK signaling in ISK and KLE cells; assay: Western blotting of p-AMPK and BIM; type: cell-based, human
Description: EC cells were lysed in RIPA buffer (Epizyme, PC102, Ipsen Biopharmaceuticals, Cambridge, MA, USA) supplemented with a protease inhibitor cocktail. Samples were then quantified using a BCA kit (Epizyme, ZJ101), resolved by SDS‐PAGE, and blotted with primary antibodies and corresponding horseradish peroxidase‐conjugated secondary antibodies. The primary antibodies used included anti‐AMPK (1:1000 dilution), anti‐p‐AMPK (1:1000 dilution), anti‐BIM (1:1000 dilution), and anti‐GRP75 (1:1000 dilution) from Cell Signaling Technology (Beverly, MA, USA) and anti‐GAPDH (1:1500 dilution) from Yeason.

[7] = test system: ISK cells xenograft tumors; assay: ISK tumor xenograft in nude mice; type: in vivo, BALB/c nude mice
Description: All animal experiments were approved by the Committee on the Ethics of Animal Experiments of Shanghai Jiao Tong University, China (GKLW 2018–40). Female BALB/c nude mice (at least 5 weeks old) were procured from a commercial supplier (JieSiJie, Shanghai, China) through the Department of Laboratory Animal Science at Shanghai Jiaotong University School of Medicine. Mice were maintained under standard conditions and cared for according to the institutional guidelines for animal care. EC cells resuspended in PBS were mixed with Matrigel (BD Biosciences) in equal volume and then subcutaneously injected into the armpits of the nude mice. […] The dose of the compound injected into the mice was slightly adjusted following the methodology described in the previous study.^[ [7] ^] Every 2 d, the length (L) and width (W) of each tumor were measured twice using an external Vernier caliper for automatic reading, where the larger of the two measurements was defined as L and the smaller as W. The tumor volume was calculated using Equation 1, as follows: (1) V=0.52×L×W^2
HSP‐70 ELISA kits were purchased from YuBo Biology. […] Equal amounts of diluted protein supernatant were used, and the assay was conducted according to the manufacturer's instructions. The obtained absorbance values for protein levels were then transferred to in‐house data analysis software developed using the Windows Microsoft Excel platform to calculate the standard deviations for each group, and the average absorbance for each group was compared to the standardized controls. Each test group for each of the proteins of interest consisted of eight replicates. Assay‐specific controls were run with each plate to ensure optimal accuracy of the results.

ISK and KLE cells [8] = assay: ATP production and α-KGDH activity in EC cells; type: cell-based, human; settings: 10 µmol L−1
Procedure: The intracellular ATP levels were then checked using an enhanced ATP kit (Beyotime Biotechnology, Jiangsu, China), in accordance with the manufacturer's instructions. The entire cell population, including any floating cells, was collected, lysed, and boiled to release the ATP for the assay, and the results were compared with those from the DMSO group (%).
Intracellular α‐KGDH activity levels were measured using an α‐KGDH activity assay kit (Solarbio, Beijing, China) according to the manufacturer's instructions. Briefly, the entire cell population, including any floating cells, was collected, milled, and the absorbance measured. The α‐KGDH activity was then determined using Equation 2 as follows: (2) α−KGDH=U/10^4cell=4.962×ΔAdetermination−ΔAblank

water solubility = type: physicochemical
GRP75 = target: T1, GRP75 (Homo sapiens, UniProt P38646); assay: microscale thermophoresis (MST) binding assay; settings: His-tagged recombinant GRP75 50 nmol L−1, n = 3; read-out: K d, binding to GRP75 (MST)
T1 construct: purchased Zoonbio Biotechnology Co., Ltd. (Nanjing, China); host or cells: E. coli
T1 sequence (P38646 47-679): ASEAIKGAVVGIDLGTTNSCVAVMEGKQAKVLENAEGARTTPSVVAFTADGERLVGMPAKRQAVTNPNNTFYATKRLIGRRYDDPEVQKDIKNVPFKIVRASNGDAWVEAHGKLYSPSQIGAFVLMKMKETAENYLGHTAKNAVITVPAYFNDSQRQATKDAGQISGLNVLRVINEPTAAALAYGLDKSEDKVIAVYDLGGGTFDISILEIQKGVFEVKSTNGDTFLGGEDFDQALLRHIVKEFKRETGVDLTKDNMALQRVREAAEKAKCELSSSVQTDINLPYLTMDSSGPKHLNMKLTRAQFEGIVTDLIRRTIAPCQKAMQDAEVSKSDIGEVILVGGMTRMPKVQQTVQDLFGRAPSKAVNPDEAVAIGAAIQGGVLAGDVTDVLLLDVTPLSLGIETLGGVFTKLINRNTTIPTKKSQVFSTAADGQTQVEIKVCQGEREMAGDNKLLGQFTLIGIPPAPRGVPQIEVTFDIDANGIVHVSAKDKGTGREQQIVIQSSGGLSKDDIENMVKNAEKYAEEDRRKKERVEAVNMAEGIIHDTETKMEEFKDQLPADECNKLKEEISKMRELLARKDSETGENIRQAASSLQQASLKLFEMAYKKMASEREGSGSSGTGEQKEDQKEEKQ
Procedure: Purified GRP75 protein was obtained by Zoonbio Biotechnology Co., Ltd. (Nanjing, China). Recombinant His‐tagged GRP75 protein was labeled with RED‐tris‐NTA second generation dye solution (MO‐L018, NanoTemper Technologies), according to the manufacturer's instructions. […] All samples were diluted in 1× PBST and contained the same amount of DMSO. The K d was determined in MO. Control using the K d fit.

[9] = IP 5 mg kg−1, read-out: AUC 0–24 h
[10] = IP 5 mg kg−1, read-out: AUC 24 h−∞
[11] = IV 2 mg kg−1, read-out: AUC 0–24 h
[12] = IV 2 mg kg−1, read-out: AUC 24 h−∞
[13] = PO 10 mg kg−1, read-out: AUC 0–24 h
[14] = PO 10 mg kg−1, read-out: F (oral bioavailability)

Row | IC50 [1] [µM] | Compound | extrapyramidal side effects [4] | Cmax ([5]; IP 5 mg kg−1) [ng/mL] | Tmax ([5]; IP 5 mg kg−1) [h] | half-life ([5]; IP 5 mg kg−1) [min] | AUC(0-t) [5, 9] [ng·h/mL] | AUC(0-inf) [5, 10] [ng·h/mL] | bioavailability ([5]; IP 5 mg kg−1, read-out: F) [%] | clearance ([5]; IV 2 mg kg−1) [mL/min/kg] | half-life ([5]; IV 2 mg kg−1) [min] | AUC(0-t) [5, 11] [ng·h/mL] | AUC(0-inf) [5, 12] [ng·h/mL] | Cmax ([5]; PO 10 mg kg−1) [ng/mL] | Tmax ([5]; PO 10 mg kg−1) [h] | AUC(0-t) [5, 13] [ng·h/mL] | bioavailability [5, 14] [%] | other results
1 | 58.2 ± 7.62 | CN(C)CCCN1c2ccccc2Sc2ccc(Cl)cc21 [CPZ, chlorpromazine] | – | – | – | – | – | – | – | – | – | – | – | – | – | – | – | % Bound (plasma protein binding rate) [2]: 98.44%; fraction unbound [2]: 0.0156
2 | – | CN1CCN(CCCCCN2c3cc(Cl)ccc3Sc3cccnc32)CC1 [JX57] | minor | 3.04 ± 1.12 | 0.33 ± 0.14 | 184 ± 61.8 | 9.01 ± 7.03 | 14.2 ± 8.39 | 44.4 ± 34.6 | 2650 | 163 ± 54 | 8.12 ± 4.13 | 13.9 ± 5.43 | 11.3 ± 4.57 | 0.41 ± 0.14 | 41.5 ± 15.7 | 94.3 ± 46.9 | glycolysis rate and glycolytic capacity (ECAR) (ISK and KLE cells [3]): markedly reduced; half-life ([5]; PO 10 mg kg−1): 242 ± 52.8 min; AUC(0-inf) ([5]; PO 10 mg kg−1, read-out: AUC 24 h−∞): 55.7 ± 24.3 ng·h/mL; ER–mitochondrial distance (TEM) (EC cells (ISK); EC cells (ISK), 10 µmol L−1): significantly expanded; [Ca2+]m levels (EC cells (ISK); EC cells, 10 µmol L−1, confocal Rhod-2/Mito-Tracker): decreased; %Unbound [2]: 0.84%; p‐AMPK expression and BIM expression [6]: increased; expression of GRP75 in xenograft tumors with ISK cells (ELISA) ([7]; 5 mg kg−1, n = 8): reduced; effects on GRP75-knockdown ISK tumor versus vehicle group ([7]; GRP75-deficient ISK cells in nude mice, 5 mg kg−1 i.p. daily, n = 6): not significantly different; anticancer effect in vivo on addition of the AMPK inhibitor compound C ([7]; JX57 5 mg kg−1 plus compound C 0.2 mg kg−1, n = 6): partially abolished; cellular ATP levels (ISK and KLE cells [8]): reduced; α‐ketoglutarate activity (ISK and KLE cells [8]): reduced
3 | 6.39 ± 0.87 | Clc1ccc2c(c1)N(CCCCCN1CCC3(CCCCC3)CC1)c1ncccc1S2 [JX66] | minor | 10 ± 1.49 | 1.67 ± 0.57 | 606 ± 82.8 | 140 ± 35.3 | 170 ± 37.4 | 42.5 ± 13 | 265 | 306 ± 101 | 144 ± 75.9 | 153 ± 75.9 | 3.8 ± 1.29 | 5.5 ± 4.33 | 16 ± 2.65 | 2.23 ± 0.37 | water solubility (water solubility): poor; Kd (GRP75): 37.6 µM
